Assay [1] deals with Inosine-5'-monophosphate dehydrogenase 2 (Homo sapiens, UniProt P12268). Description: Inhibition of human IMPDH2.
The target of assay [2] is Inosine-5'-monophosphate dehydrogenase 1 (Homo sapiens, UniProt P20839). The experiment in a line: Inhibition of human IMPDH1.
The target of assay [3] is Inosine-5'-monophosphate dehydrogenase (IMPDH) (Homo sapiens) (UniProt P20839+P12268). The experiment in a line: Selectivity for IMPDH1 over IMPDH2. The assay is classed as protein assay.

A word on the IC50: it is the midpoint of a concentration-inhibition curve.

Sequence of Inosine-5'-monophosphate dehydrogenase 1 (P20839 whole entry): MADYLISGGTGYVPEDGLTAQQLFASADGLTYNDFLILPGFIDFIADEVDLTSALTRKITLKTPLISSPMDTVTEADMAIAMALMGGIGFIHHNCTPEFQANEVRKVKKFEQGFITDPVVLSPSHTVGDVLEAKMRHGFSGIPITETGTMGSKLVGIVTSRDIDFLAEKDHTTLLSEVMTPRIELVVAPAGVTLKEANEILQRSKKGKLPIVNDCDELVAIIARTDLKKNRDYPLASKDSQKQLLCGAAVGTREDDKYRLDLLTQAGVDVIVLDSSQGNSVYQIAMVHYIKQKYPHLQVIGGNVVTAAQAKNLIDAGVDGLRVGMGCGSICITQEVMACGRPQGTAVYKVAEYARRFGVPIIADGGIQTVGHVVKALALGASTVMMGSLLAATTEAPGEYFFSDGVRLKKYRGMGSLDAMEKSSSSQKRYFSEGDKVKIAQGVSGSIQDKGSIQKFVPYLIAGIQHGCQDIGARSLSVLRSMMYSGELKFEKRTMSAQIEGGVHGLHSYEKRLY
Sequence of Inosine-5'-monophosphate dehydrogenase (IMPDH) (Homo sapiens) (P20839 whole entry, looked up, other chains not shown): as the sequence (P20839 whole entry) above

Turning to `COc1c(C)c2c(c(O)c1C/C=C(\C)COCP(=O)(O)O)C(=O)OC2`, in assay [1], it took 246 nM to reach half-maximal inhibition (IC50). With `COc1c(C)c2c(c(O)c1C/C=C(\C)CN(C=O)CCP(=O)(O)O)C(=O)OC2`, in assay [1], the half-maximal inhibitory concentration (IC50) came out at 749 nM. Compound `CCc1c(C)c2c(c(O)c1C/C=C(\C)CN(CCP(=O)(O)O)S(N)(=O)=O)C(=O)OC2` registered a half-inhibitory concentration (IC50) in assay [1] of 24 nM. This IC50 is about 31-fold lower than that of the compound before. As for `COc1c(C)c2c(c(O)c1C/C=C(\C)CN(CCP(=O)(O)O)S(C)(=O)=O)C(=O)OC2`, in assay [1], the half-inhibitory concentration (IC50) was found to be 498 nM. Compared with the last compound, the IC50 is about 21-fold higher.

`COC/C(C)=C/Cc1c(O)c2c(c(C)c1OC)COC2=O` registered an IC50 in assay [1] of 273 nM. In turn, `COc1c(C)c2c(c(O)c1C/C=C(\C)CCCP(=O)(O)O)C(=O)OC2` registered an IC50 in assay [1] of 86 nM.

As to `CCc1c(C)c2c(c(O)c1C/C=C(\C)CP(=O)(O)O)C(=O)OC2`, the results for the concentration for half-maximal inhibition (IC50) in assay [2] and in assay [1] were 71 nM and 20 nM, respectively. Also, the Selectivity ratio in assay [3] was 3.6. `COc1c(C)c2c(c(O)c1CC=C(C)C)C(=O)OC2` yielded a concentration for half-maximal inhibition (IC50) in assay [1] of 254 nM. That is a sub-micromolar value. The same measure, in the same setting: under `COc1c(C)c2c(c(O)c1C/C=C(\C)CN(CCP(=O)(O)O)S(N)(=O)=O)C(=O)OC2` stands 93 nM; under `CCc1c(C)c2c(c(O)c1C/C=C(\C)CN(C)CCP(=O)(O)O)C(=O)OC2`, 132 nM. Still for that read-out and setting: next, `COc1c(C)c2c(c(O)c1C/C=C(\C)CCP(=O)(O)O)C(=O)OC2`: 96 nM; `CCc1c(C)c2c(c(O)c1C/C=C(\C)CN(CCP(=O)(O)O)S(C)(=O)=O)C(=O)OC2`: 68 nM; `COc1c(C)c2c(c(O)c1C/C=C(\C)CP(=O)(OC)OC)C(=O)OC2`: 289 nM.

Take `COc1c(C)c2c(c(O)c1C/C=C(\C)CNCCP(=O)(O)O)C(=O)OC2`: in assay [1], it took 499 nM to reach half-maximal inhibition (IC50).

As for `CCOP(=O)(CCNC/C(C)=C/Cc1c(O)c2c(c(C)c1OC)COC2=O)OCC`, the IC50 in assay [1] was over 1000 nM. Regarding `COc1c(C)c2c(c(O)c1C/C=C(\C)CCC(=O)O)C(=O)OC2` [MYCOPHENOLIC ACID], the IC50 in assay [2] was 32 nM. On to `COc1c(C)c2c(c(O)c1C/C=C(\C)CN(C)CCP(=O)(O)O)C(=O)OC2`, for which, in assay [1], the IC50 is over 1000 nM. Regarding `COc1c(C)c2c(c(O)c1C/C=C(\C)CNCP(=O)(O)O)C(=O)OC2`, the IC50 in assay [1] is over 1000 nM.

As for `CCc1c(C)c2c(c(O)c1C/C=C(\C)CNCCP(=O)(O)O)C(=O)OC2`, the IC50 in assay [2] was 37 nM; in assay [1], 13 nM. Further, in assay [3], the Selectivity ratio turned out to be 2.8. Consider `COc1c(C)c2c(c(O)c1C/C=C(C)/C=C/P(=O)(O)O)C(=O)OC2`, for which the concentration for half-maximal inhibition (IC50) in assay [1] amounted to 506 nM. For the compound `CCc1c(C)c2c(c(O)c1C/C=C(\C)COCP(=O)(O)O)C(=O)OC2`, the IC50 in assay [2] turned out to be 38 nM; in assay [1] it was 23 nM. In addition, the Selectivity ratio in assay [3] stood at 1.7. Turning to `COc1c(C)c2c(c(O)c1C/C=C(\C)CP(=O)(O)O)C(=O)OC2`, the IC50 in assay [1] stood at 168 nM.

For `COc1c(C)c2c(c(O)c1C/C=C(\C)CN(CCP(=O)(O)O)C(C)=O)C(=O)OC2`, the IC50 in assay [1] stood at 785 nM. This IC50 lies about 4.7-fold higher than the previous one.

The values above are taken from ChEMBL document CHEMBL1138100 (Bioorg Med Chem Lett, 2006).
